Measured values from patent US8835392B2, “Mimetic peptides and the use thereof in the form of 20S, 26S and immunoproteasome inhibitors” (Technische Universität, priority 2005, dated 2014).
Where a SMILES comes first, the peptide text is derived from it. The star is where a group is joined. Cbz = O=C(OCc1ccccc1)*; OtBu = CC(C)(C)O*

Legend:
[1] = tested on: poly-ubiquitinylated proteins in HeLa-cells; test: Accumulation of poly-ubiquitinylated proteins, Western blot; type: cell-based; details: 1 μM for compound 15
Experimental: A, HeLa-cells were cultivated were 24 hours in the presence of the inhibitor. The protein concentration was determined in accordance with the cellular lysis according to Bradford in order to normalise the proteasomal activities to the different amounts of cells. Subsequently Complete (Roche) was added to all lysates, and the proteasomal activity was determined through the hydrolysis of Suc-LLVY-AMC. B, HeLa-cells was incubated with 1 μM of compound 15 for 2, 4, 6 and 24 hours. Cells were lysed, and proteins were separated through SDS-PAGE on a 10% gel, blotted to a PVDF-membrane. The accumulation of the poly-ubiquitinylated proteins was detected in a Western blot by an anti-ubiquitine-antibody (DAKO). C, HeLa-Cells were treated with increasing concentrations of the inhibitor 15, 25, 26, 27, and 28 for 24 hours (lane 1: without inhibitor; lane 2: 10 nM; lane 3: 100 nM and lane 4: 1 μM of the given inhibitor). Cells were lysed, proteins were separated on 15% gels, and the accumulation of the poly-ubiquitinylated proteins was controlled through Western blot.
A specific inhibition of the proteasome lead to an accumulation of poly-ubiquitinylated proteins. Indeed, the amount of poly-ubiquitinylated proteins increased during the incubation with the inhibitors. First effects were observed after 2 hours, for compound 15 (FIG. 6B) as well as for compounds 20, 22, 25 and 28 (data not shown).
50 μg of whole-cell-lysate were separated by SDS-PAGE, and blottet onto a PVDF-membrane (Millipore). The blots were blocked by means of a 5% milk-suspension. The poly-ubiquitinylated proteins were detected by anti-ubiquitin-antibody (DAKO), and anti-rabbit, POD-labelled, as a secondary antibody (DIANOVA), and visualized through ECL.

[2] = tested on: Human melanoma cells (MeWo); test: Viability of human melanoma cells (MeWo), crystal violet-staining; type: cell-based; details: 72 h
Experimental: A, Human melanoma cells (MeWo) were treated with increasing concentrations of the compounds 15 or 3 (MG132) for 72 hours. The viability of the cells after the treatment with compound 15 (-♦-) and with MG132 (-□-) was detected by a crystal-violet-staining. B and C, MeWo cells were co-cultivated with the compounds 15 and 3 (MG132) for 24 hours. The cells were subsequently fixed in 70% ethanol, and treated with RNAse A. The DNA was stained with propidium iodide (5 μg/ml), and analysed by means of FACS (FACS Calibur flow cytometer; Beckton Dickinson). The statistical significance was detected by the chi-square-test. The relative distribution of the cells that were present in the G1-(black), in the S-(white) or in the G2 phase (hatched) of the cellular cycle is shown for both compounds as examined (15 in B and MG132 in C).
Human melanoma cells (MeWo) were incubated for 72 h with different concentrations of the inhibitor 15 and 28, and the viability of the cells was determined by means of crystal violet-staining (FIG. 8).

[3] = target: T1, 20S proteasome β5 chymotrypsin-like activity (Suc-LLVY-AMC) (Homo sapiens, UniProt P20618+P28074); test: Protease assay, chymotrypsin-like activity of isolated 20S proteasomes (LLVY substrate); type: biochemical; details: isolated 20S proteasome; LLVY-MCA 50 μM; 15 min pre-incubation; read-out: IC50 β5 Chymotrypsin-like (Y)
T1 construct: Proteasomes were isolated from red blood cells; from tissue; host or cells: red blood cells
Experimental: Proteasomes were isolated from red blood cells. Cells were lysed with DTT (1 mM), and the stroma-free supernatant was loaded on DEAE-sepharose (Toyopearls). Proteasome was eluted with an NaCl-gradient in TEAD (20 mM TrisCl pH 7.4, 1 mM EDTA, 1 mM azide, 1 mM DTT) of 100 to 300 mM NaCl. Proteasome was concentrated using ammonium sulfate-precipitation (between 40 and 70% saturation) and was separated in a 10-40% sucrose-gradient through centrifugation at 40.000 rpm for 16 hours (SW40; L7, Beckman & Coulter). Finally, the proteasomes were purified on a MonoQ-column and eluted with an NaCl-gradient at about 280 mM NaCl. The fractions containing purified proteasome were dialysed against 50 mM NaCl in TEAD and stored on ice. The purity was determined using SDS-PAGE.
Suc-LLVY-AMC, Z-VGR-AMC and LLE-AMC (BACHEM, Calbiochem) was used, in order to determine the chymotrypsin-like, trypsin-like or caspase-like (post-acidic)-activities of the proteasome. Substrate was incubated with proteasome at 37° C. in assay-buffer (20 mM Tris/Cl, pH 7.2, 1 mM EDTA, 1 mM DTT) for one hour. 100 ng proteasome was pre-incubated with 0.01-10 μM of the inhibitor for […]. The reaction was started by the addition of substrate (50 μM). The AMC as released was detected using fluorescence emission at 460 nm (excitation at 390 nm) using a TECAN-fluorimeter. The activity was calculated in fluorescence-units. The inhibition is depicted by IC50-values.
The chymotrypsin-like (Suc-LLVY-AMC), the trypsin-like (Bz-VGR-AMC), and the caspase-like (Z-LLE-AMC)-activities of 20S proteasomes were determined following incubation for one hour at 37° C.
The IC50-values form the inhibition of the proteasome were calculated at increasing concentrations of the inhibitor. The samples were pre-incubated for 15 min in ice. The assay was started through the addition of 50 μM of one of the following fluorogenic peptide substrates:
The release of MCA was determined at 460 nm emission (excitation 390 nm). The IC50-values as calculated for MG132 served as controls.

| IC50 [3] [nM] | Compound | first effects on accumulation of poly-ubiquitinylated proteins observed after [1] [h] | sensitivity of tumour cells [2] | IC50 ([2]; Homo sapiens, read-out: concentration at rate of survival of 50% of the cells) [nM] |
| --- | --- | --- | --- | --- |
| 58 | CC(C)CC(C=O)NC(=O)C(CC(=O)OC(C)(C)C)NC(=O)C(CC(C)C)NC(=O)OCc1ccccc1 (stereo not drawn) [Compound 15, Z-Leu-Asp(O^tBu)Leu-CHO] (Cbz-Leu-Asp(OtBu)-Leu-aldehyde; configuration not given here) | 2 | increased sensitivity of tumour cells | 15 |
| 72 | CC(C)C[C@H](NC(=O)OCc1ccccc1)C(=O)N[C@@H](CC(C)C)C(=O)N[C@@H](CC(C)C)C(=O)C(=O)Nc1ccccc1 [Compound 28] | 2 | increased sensitivity of tumour cells |  |
